Melting point data for 32 compounds are collected here from patent US20050020576A1, “Kappa agonist compounds and pharmaceutical formulations thereof” (priority 1996, published 2005).

SMILES strings stand for the structures. Structures can show the parent of a compound that is named as a salt.

The compound `CC(=O)N1CCN(C(=O)Cc2ccc(S(C)(=O)=O)cc2)C(CN2CCCC2)C1` (racemic) (as salt: hydrochloride) [(R,S-10a)] showed a melting point of 145 to 147 °C. On to `COc1cc(CC(=O)N(C)[C@H](CN2CC[C@H](O)C2)c2ccccc2)c(S(=O)(=O)N2CCOCC2)cc1OC` (as salt: HCl) [Example 141, 2-[2-N-(Morpholinesulfamoyl)-4,5-dimethoxyphenyl]-N-methyl-N-[(1S)-1-phenyl-2-[1-(3S)-(3-hydroxypyrrolidinyl)ethyl]]acetamide], for which the melting point is 158 to 161 °C. For `CN(C(=O)Cc1ccccc1NS(C)(=O)=O)[C@H](CN1CCCC1)c1cccc(NS(C)(=O)=O)c1` (as salt: hydrochloride) [Example 3pp, 2-(2-Methanesulfonamidophenyl)-N-methyl-N-[(1S)-1-(3-methanesulfon-amidophenyl)-2-(1-pyrrolidinyl)ethyl]acetamide Hydrochloride], the melting point was 160 °C (dec.). With `COC(=O)N1CCN(C(=O)Cc2ccc(C(F)(F)F)cc2)C(CN2CCCC2)C1` (racemic) (as salt: hydrochloride) [(R,S-9b), (R,S)-Methyl 4-[(4-trifluoromethylphenyl)acetyl]-3-[(1-pyrrolidinyl)-methyl]-1-piperazinecarboxylate hydrochloride] the figure was 210 °C; with `CN(C(=O)Cc1ccc(S(C)(=O)=O)cc1)[C@@H]1CCCC[C@H]1N1CCCC1.Cl` (racemic), 152 to 154 °C (dec.); with `CN(C(=O)Cc1ccc(S(C)(=O)=O)cc1)[C@H](CN1CCCC1)c1cccc([N+](=O)[O-])c1` (as salt: HCl), 276 to 277 °C. With `COc1cc(CC(=O)N(C)[C@H](CN2CCCC2)c2ccccc2)c(S(=O)(=O)N2CCN(C)CC2)cc1OC` (as salt: HCl) [Example 138] the figure was 255 to 257 °C (dec.); with `CC(=O)N1CCN(C(=O)Cc2ccccc2[N+](=O)[O-])C(CN2CCCC2)C1` (racemic) (as salt: hydrochloride) [(R,S-10e), (R,S)-4-Acetyl-1-[(2-nitrophenyl)acetyl]-3-[(1-pyrrolidinyl)-methyl]piperazine-carboxylate hydrochloride], 180 °C (dec.).

For the compound `COc1ccc(CC(=O)N(C)[C@H](CN2CCCC2)c2ccccc2)cc1NS(C)(=O)=O` (as salt: methane sulfonate) [Example 122, 2-(3-N-Methylsulfonamido-3-amino-4-methoxyphenyl)-N-methyl-N-[(1S)-1-phenyl-2-(1-pyrrolidinyl)ethyl]acetamide methane sulfonate], the melting point fell in the range of 149 to 151 °C.

For the compound `COC(=O)N1CCN(C(=O)Cc2ccc(S(C)(=O)=O)cc2)C(CN2CCCC2)C1` (racemic) (as salt: hydrochloride) [(R,S-9a), (R,S)-Methyl 4-[(4-methylsulfonylphenyl)acetyl]-3-[(1-pyrrolidinyl)-methyl]-1-piperazinecarboxylate hydrochloride], the melting point came to 225 °C. With `CN(C(=O)Cc1ccc(O)c(N(S(C)(=O)=O)S(C)(=O)=O)c1)[C@H](CN1CCCC1)c1ccccc1` (as salt: salt) [Example 130, 2-(3-N-Bis-methylsulfonamido-3-amino-4-hydroxyphenyl)-N-methyl-N-[(1S)-1-phenyl-2-(1-pyrrolidinyl)ethyl]acetamide] the figure was 197 to 199 °C. Consider `CCOC(=O)/C=C/C(=O)Nc1cc(Cl)c(Cl)cc1CC(=O)N(C)[C@H](CN1CCCC1)c1ccccc1` (as salt: hydrochloride) [Example 3y, (E) Ethyl 4-[2-(2-amino-4,5-dichlorophenyl)-N-methyl-N-[(1S)-1-phenyl)-2-[1-pyrrolidinyl]ethyl]acetamido]4-oxo-2-butenoate hydrochloride], for which the melting point was 165 to 167 °C (dec.).

Consider `CN(C(=O)Cc1ccc(Cl)c(Cl)c1)[C@H](CN1CCCC1)c1cccc(NC(=O)CCC(=O)NCC(=O)O)c1` (as salt: hydrochloride) [Example 3j, 2-(3,4-Dichlorophenyl)-N-methyl-N-{(1R,S)-1-[3-(3-(((hydroxycarbonyl)-methyl)aminocarbonyl)propionamido)phenyl]-2-(1-pyrrolidinyl)ethyl}acetamide hydrochloride], for which the melting point was 158 °C (dec.).

In the case of `CN(C(=O)Cc1ccc(C(F)(F)F)cc1NS(C)(=O)=O)[C@H](CN1CC[C@H](O)C1)c1ccccc1` (as salt: HCl) [Example 126, 2-(2-N-Methylsulfonamido-2-amino-4-trifluoromethylphenyl)-N-methyl-N-[(1S)-1-phenyl-2-[1-(3S)-(3-hydroxypyrrolidinyl)ethyl]]acetamide], the melting point lay within 178 to 181 °C. With `COc1ccc(C(CN2CCCC2)N(C)C(=O)Cc2ccccc2NS(C)(=O)=O)cc1` (racemic) (as salt: salt) [Example 128] the figure was 170 to 172 °C; with `CS(=O)(=O)O[C@H]1CCN(CC2CN(S(C)(=O)=O)CCN2C(=O)Cc2ccc(Cl)c(Cl)c2)C1` (stereo partly drawn) (as salt: hydrochloride) [Example 1jj, 4-Methanesulfonyl-1-[(3,4-dichlorophenyl)acetyl]-2-(R,S)-[3-(S)-methanesulfonate-1-(pyrrolidinyl)methyl]piperazine hydrochloride], 130 to 132 °C. Compound `COC(=O)N1CCN(C(=O)Cc2c[nH]c3ccccc23)C(CN2CCCC2)C1` (racemic) (as salt: hydrochloride) [(R,S-9c), (R,S)-Methyl 4-[(3-indolyl)acetyl]-3-[(1-pyrrolidinyl)-methyl]-1-piperazine-carboxylate hydrochloride] gave a melting point of 143 °C. For `CN(C(=O)Cc1ccccc1NCC(=O)O)C1CCCCC1N1CCCC1` (centres unmarked) (as salt: HCl), the melting point was 212 to 214 °C (dec.). With `COc1cc(CC(=O)N(C)[C@H](CN2CC[C@H](O)C2)c2ccccc2)cc(OC)c1OC.Cl` the figure was 230 to 232 °C. With `O=C(Cc1ccc(C(F)(F)F)cc1)N1CCN(C(=O)C(F)(F)F)CC1CN1CCCC1` (racemic) (as salt: hydrochloride) [Example 1h, 4-Trifluoroacetyl-1-[(-4-trifluoromethylphenyl)acetyl]-2-(R,S)-(1-pyrrolidinyl)methyl]piperazine hydrochloride] the figure was 140 to 145 °C; with `CNS(=O)(=O)c1ccccc1CC(=O)N1CCN(C(=O)OC)CC1CN1CCCC1` (racemic) (as salt: hydrochloride) [Example 1e, Methyl-4-[(2-[N-methylamino)sulfamyl]phenyl)acetyl]-3-(R,S)-[(1-pyrrolidinyl)methyl]-1-piperazinecarboxylate hydrochloride], 155 to 160 °C; with `CCOP(=O)(Nc1cccc([C@@H](CN2CCCC2)N(C)C(=O)Cc2ccc(Cl)c(Cl)c2)c1)OCC` (as salt: hydrochloride) [Example 3g, 2-(3,4-Dichlorophenyl)-N-methyl-N-[(1S)-1-[3-(diethyl Phosphoryl)amino]phenyl)-2-(1-pyrrolidinyl)ethyl]acetamide hydrochloride], 140 to 142 °C. With `CC(=O)N1CCN(C(=O)Cc2cccc([N+](=O)[O-])c2)C(CN2CCCC2)C1` (racemic) (as salt: hydrochloride) [(R,S-10d), (R,S)-4-Acetyl-1-[(3-nitrophenyl)acetyl]-3-[(1-pyrrolidinyl)-methyl]piperazine-carboxylate hydrochloride], the melting point fell in the range of 143 to 145 °C. With `COc1cc(CC(=O)N(C)[C@H](CN2CCCC2)c2ccccc2)c(S(=O)(=O)N(C)C)cc1OC` (as salt: HCl) [Example 136, 2-[2-(N-Dimethylsulfamoyl)-4,5-dimethoxyphenyl]-N-methyl-N-[(1S)-1-phenyl-2-[(1-pyrrolidinyl)ethyl]]acetamide], the melting point lay in the range of 246 to 248 °C. With `COc1cc(CC(=O)N(C)[C@H](CN2CCCC2)c2ccccc2)c(S(=O)(=O)N(C)Cc2ccccc2)cc1OC` (as salt: HCl) [Example 148, 2-[2-(N-Benzyl-N-methylsulfamoyl)-4,5-dimethoxyphenyl]-N-methyl-N-[(1S)-1-phenyl-2-[(1-pyrrolidinyl)ethyl]]acetamide] the figure was 188 to 189 °C; with `CN(C(=O)Cc1cc2c(cc1S(=O)(=O)N(C)C)OCO2)[C@H](CN1CCCC1)c1ccccc1` (as salt: HCl) [Example 132, 2-[2-(N-Dimethylsulfamoyl)-4,5-methylenedioxyphenyl]-N-methyl-N-[(1S)-1-phenyl-2-[(1-pyrrolidinyl)ethyl]]acetamide], 269 to 271 °C; with `CN(C(=O)Cc1cc(Cl)c(Cl)cc1NC(=O)/C=C\C(=O)O)[C@H]1CCCC[C@@H]1N1CCCC1` (racemic), 246 to 248 °C (dec.). With `CN(C(=O)Cc1ccc(S(C)(=O)=O)cc1)[C@@H]1c2ccccc2C[C@H]1N1CCCC1` (racemic) (as salt: HCl) the figure was 246 to 248 °C; with `CS(=O)(=O)c1ccc(CC(=O)N2CCN(S(C)(=O)=O)CC2CN2CCCC2)cc1` (racemic) (as salt: hydrochloride) [(R,S-8b), (R,S)-4-Methanesulfonyl-1-[(4-methylsulfonylphenyl)acetyl]-2-[(1-pyrrolidinyl)-methyl]piperazine hydrochloride], 185 to 188 °C; with `COc1ccc(CC(=O)N(C)[C@H](CN2CC[C@H](O)C2)c2ccccc2)cc1NS(C)(=O)=O` (as salt: HCl) [Example 127, 2-(3-N-Methylsulfonamido-3-amino-4-methoxyphenyl)-N-methyl-N-[(1S)-1-phenyl-2-[1-(3S)-(3-hydroxypyrrolidinyl)ethyl]]acetamide], 148 to 151 °C. `CN(C(=O)Cc1ccc(C(F)(F)F)cc1[N+](=O)[O-])[C@@H]1c2ccccc2C[C@H]1N1CCCC1` (racemic) (as salt: HCl) showed a melting point of 249 to 250 °C. With `COc1cc(CC(=O)N(C)[C@H](CN2CCCC2)c2ccccc2)c(S(=O)(=O)N(C)Cc2ccccc2)cc1OC` (as salt: hydrochloride) [Example 3xx, 2-(2-N-Benzyl-2-N-methylsulfamoyl-3,4-dimethoxyphenyl)-N-methyl-N-[(1S)-1-phenyl-2-(1-pyrrolidinyl)ethyl]acetamide hydrochloride] the figure was 188 to 190 °C.
